The results in this text go back to patent US12295936B2, “Immunomodulating urea azalides” (Zoetis Services LLC, priority 2020, dated 2025).

What is called IC50 is the midpoint of a concentration-inhibition curve.

Like-named read-outs stand apart in the source and are kept apart here. Bounds are passed on as bounds.

Test [1] relates to BRD pathogens, M. haemolytica and P. multocida. As to the kind of experiment: MIC screening panel of BRD pathogens (antibacterial / non-antibacterial).
The test system of another test is IL-1β. Kind of test: LPS-stimulated whole bovine blood assay, MSD cytokine detection. The format is cell-based. As to conditions: overstimulation of IL-1β, LPS-stimulated bovine whole blood.
In a further test the test system is IL-6. The test is described as above. The format is cell-based. The note with it: Bos taurus, read-out: IL-6 (IC50 μM). The text has this: In order to correlate RNA sequencing data to cytokine changes the whole blood assay was utilized. […] The enhancement result represents an overall stimulation of cytokine levels due to cellular stress or potential toxicity with increasing concentrations of the compound, representing a typical bell shape response curve for immunomodulatory activity.

Another test has as its system TNF-α. The test is described as above. The format is cell-based. The note with it: Bos taurus, read-out: TNF-α (IC50 μM).
Where [2] appears, read: read-out: antibacterial / non-antibacterial (MIC for the BRD pathogens).
The mark [3] stands for this setting: LPS-stimulated bovine whole blood.
Where [4] appears, read: read-out: MIC ≤64 μg/mL for at least one of the bacterial strains (flag * at Ex #).

Turning to `CC[C@H]1OC(=O)[C@H](C)[C@@H](O[C@H]2C[C@@](C)(OC)[C@](O)(CN3CCOCC3)[C@H](C)O2)[C@H](C)[C@@H](O[C@@H]2O[C@H](C)C[C@H](N(C)C(=O)N(C)c3ccccc3)[C@H]2O)[C@](C)(O)C[C@@H](C)CN[C@H](C)[C@@H](O)[C@]1(C)O` [Example J-10, 1-((2S,3R,4S,6R)-2-(((2R,3S,4R,5R,8R,10R,11R,12S,13S,14R)-2-ethyl-3,4,10-trihydroxy-13-(((2R,4R,5S,6S)-5-hydroxy-4-methoxy-4,6-dimethyl-5-(morpholinomethyl)tetrahydro-2H-pyran-2-yl)oxy)-3,5,8,10,12,14-hexamethyl-15-oxo-1-oxa-6-azacyclopentadecan-11-yl)oxy)-3-hydroxy-6-methyltetrahydro-2H-pyran-4-yl)-1,3-dimethyl-3-phenylurea], the MIC in test [1] (setting [2]) was above 64 µg/mL. For the same compound, the “IL-1β OS of LPS” value with IL-1β is 40 µM. The results for the IC50 with IL-6 (setting [3]) and in the test with TNF-α (setting [3]) were 45 µM and 20 µM, respectively.

Regarding `CC[C@H]1OC(=O)[C@H](C)[C@@H](O[C@H]2C[C@@](C)(OC)[C@](O)(CN3CCCC3)[C@H](C)O2)[C@H](C)[C@@H](O[C@@H]2O[C@H](C)C[C@H](N(C)C(=O)N(C)c3ccccc3)[C@H]2O)[C@](C)(O)C[C@@H](C)CN[C@H](C)[C@@H](O)[C@]1(C)O` [Example J-12, 1-((2S,3R,4S,6R)-2-(((2R,3S,4R,5R,8R,10R,11R,12S,13S,14R)-2-ethyl-3,4,10-trihydroxy-13-(((2R,4R,5S,6S)-5-hydroxy-4-methoxy-4,6-dimethyl-5-(pyrrolidin-1-ylmethyl)tetrahydro-2H-pyran-2-yl)oxy)-3,5,8,10,12,14-hexamethyl-15-oxo-1-oxa-6-azacyclopentadecan-11-yl)oxy)-3-hydroxy-6-methyltetrahydro-2H-pyran-4-yl)-1,3-dimethyl-3-phenylurea], the MIC in test [1] (setting [2]) is above 64 µg/mL. Moreover, in the test with IL-1β, the “IL-1β OS of LPS” value came out at 22 µM. The figures for the IC50 with IL-6 (setting [3]) and with TNF-α (setting [3]) were 126 µM and 34 µM, respectively.

`CC[C@H]1OC(=O)[C@H](C)[C@@H](O[C@H]2C[C@@](C)(OC)[C@](O)(CN3CC(F)(F)C3)[C@H](C)O2)[C@H](C)[C@@H](O[C@@H]2O[C@H](C)C[C@H](N(C)C(=O)N(C)c3ccccc3)[C@H]2O)[C@](C)(O)C[C@@H](C)CN[C@H](C)[C@@H](O)[C@]1(C)O` [Example J-15, 1-((2S,3R,4S,6R)-2-(((2R,3S,4R,5R,8R,10R,11R,12S,13S,14R)-13-(((2R,4R,5S,6S)-5-((3,3-difluoroazetidin-1-yl)methyl)-5-hydroxy-4-methoxy-4,6-dimethyltetrahydro-2H-pyran-2-yl)oxy)-2-ethyl-3,4,10-trihydroxy-3,5,8,10,12,14-hexamethyl-15-oxo-1-oxa-6-azacyclopentadecan-11-yl)oxy)-3-hydroxy-6-methyltetrahydro-2H-pyran-4-yl)-1,3-dimethyl-3-phenylurea]: the MIC in test [1] (setting [2]) is above 64 µg/mL. For the same compound, the “IL-1β OS of LPS” value with IL-1β turned out to be 16 µM. Further, the IC50 in the test with IL-6 (setting [3]) came out at 28 µM; in the test with TNF-α (setting [3]) it was 14 µM.

`CC[C@H]1OC(=O)[C@H](C)[C@@H](O[C@H]2C[C@@](C)(OC)[C@](O)(CN3CCC(F)(F)CC3)[C@H](C)O2)[C@H](C)[C@@H](O[C@@H]2O[C@H](C)C[C@H](N(C)C(=O)N(C)c3ccccc3)[C@H]2O)[C@](C)(O)C[C@@H](C)CN[C@H](C)[C@@H](O)[C@]1(C)O` [Example J-17, 1-((2S,3R,4S,6R)-2-(((2R,3S,4R,5R,8R,10R,11R,12S,13S,14R)-13-(((2R,4R,5S,6S)-5-((4,4-difluoropiperidin-1-yl)methyl)-5-hydroxy-4-methoxy-4,6-dimethyltetrahydro-2H-pyran-2-yl)oxy)-2-ethyl-3,4,10-trihydroxy-3,5,8,10,12,14-hexamethyl-15-oxo-1-oxa-6-azacyclopentadecan-11-yl)oxy)-3-hydroxy-6-methyltetrahydro-2H-pyran-4-yl)-1,3-dimethyl-3-phenylurea]: the MIC in test [1] (setting [4]) was below 64 µg/mL. Further, the “IL-1β OS of LPS” value with IL-1β turned out to be 40 µM. For the same compound, the IC50 stood at 25 µM in the test with IL-6 (setting [3]) and 14 µM in the test with TNF-α (setting [3]).

For `CC[C@H]1OC(=O)[C@H](C)[C@@H](O[C@H]2C[C@@](C)(OC)[C@](O)(CN3CCCCC3)[C@H](C)O2)[C@H](C)[C@@H](O[C@@H]2O[C@H](C)C[C@H](N(C)C(=O)N(C)c3ccccc3)[C@H]2O)[C@](C)(O)C[C@@H](C)CN[C@H](C)[C@@H](O)[C@]1(C)O` [Example J-18, 1-((2S,3R,4S,6R)-2-(((2R,3S,4R,5R,8R,10R,11R,12S,13S,14R)-2-ethyl-3,4,10-trihydroxy-13-(((2R,4R,5S,6S)-5-hydroxy-4-methoxy-4,6-dimethyl-5-(piperidin-1-ylmethyl)tetrahydro-2H-pyran-2-yl)oxy)-3,5,8,10,12,14-hexamethyl-15-oxo-1-oxa-6-azacyclopentadecan-11-yl)oxy)-3-hydroxy-6-methyltetrahydro-2H-pyran-4-yl)-1,3-dimethyl-3-phenylurea], the MIC in test [1] (setting [4]) is below 64 µg/mL. The “IL-1β OS of LPS” value with IL-1β was above 250 µM. The half-inhibitory concentration (IC50) in the test on IL-6 was found to be 17 µM; with TNF-α, 16 µM.

In the case of `CC[C@H]1OC(=O)[C@H](C)[C@@H](O[C@H]2C[C@@](C)(OC)[C@](O)(CN3CCC(c4ccccc4)CC3)[C@H](C)O2)[C@H](C)[C@@H](O[C@@H]2O[C@H](C)C[C@H](N(C)C(=O)N(C)c3ccccc3)[C@H]2O)[C@](C)(O)C[C@@H](C)CN[C@H](C)[C@@H](O)[C@]1(C)O` [Example J-20, 1-((2S,3R,4S,6R)-2-(((2R,3S,4R,5R,8R,10R,11R,12S,13S,14R)-2-ethyl-3,4,10-trihydroxy-13-(((2R,4R,5S,6S)-5-hydroxy-4-methoxy-4,6-dimethyl-5-((4-phenylpiperidin-1-yl)methyl)tetrahydro-2H-pyran-2-yl)oxy)-3,5,8,10,12,14-hexamethyl-15-oxo-1-oxa-6-azacyclopentadecan-11-yl)oxy)-3-hydroxy-6-methyltetrahydro-2H-pyran-4-yl)-1,3-dimethyl-3-phenylurea], the MIC in test [1] (setting [2]) is above 64 µg/mL. For the same compound, the “IL-1β OS of LPS” value in the test on IL-1β came to 3 µM. The values for the IC50 in the test with IL-6 (setting [3]) and in the test on TNF-α (setting [3]) were 9 µM and 7 µM, respectively.

Turning to `CC[C@H]1OC(=O)[C@H](C)[C@@H](O[C@H]2C[C@@](C)(OC)[C@](O)(CN3CCC(S(C)(=O)=O)CC3)[C@H](C)O2)[C@H](C)[C@@H](O[C@@H]2O[C@H](C)C[C@H](N(C)C(=O)N(C)c3ccccc3)[C@H]2O)[C@](C)(O)C[C@@H](C)CN[C@H](C)[C@@H](O)[C@]1(C)O` [Example J-21, 1-((2S,3R,4S,6R)-2-(((2R,3S,4R,5R,8R,10R,11R,12S,13S,14R)-2-ethyl-3,4,10-trihydroxy-13-(((2R,4R,5S,6S)-5-hydroxy-4-methoxy-4,6-dimethyl-5-((4-(methylsulfonyl)piperidin-1-yl)methyl)tetrahydro-2H-pyran-2-yl)oxy)-3,5,8,10,12,14-hexamethyl-15-oxo-1-oxa-6-azacyclopentadecan-11-yl)oxy)-3-hydroxy-6-methyltetrahydro-2H-pyran-4-yl)-1,3-dimethyl-3-phenylurea], in test [1] (setting [2]), the MIC is above 64 µg/mL. In addition, the “IL-1β OS of LPS” value in the test with IL-1β stood at 20 µM. For the same compound, the IC50 in the test on IL-6 (setting [3]) turned out to be 75 µM; with TNF-α (setting [3]), 65 µM.

As for `CC[C@H]1OC(=O)[C@H](C)[C@@H](O[C@H]2C[C@@](C)(OC)[C@](O)(Cn3ccnc3)[C@H](C)O2)[C@H](C)[C@@H](O[C@@H]2O[C@H](C)C[C@H](N(C)C(=O)N(C)c3ccccc3)[C@H]2O)[C@](C)(O)C[C@@H](C)CN[C@H](C)[C@@H](O)[C@]1(C)O` [Example J-24, 1-((2S,3R,4S,6R)-2-(((2R,3S,4R,5R,8R,10R,11R,12S,13S,14R)-13-(((2R,4R,5S,6S)-5-((1H-imidazol-1-yl)methyl)-5-hydroxy-4-methoxy-4,6-dimethyltetrahydro-2H-pyran-2-yl)oxy)-2-ethyl-3,4,10-trihydroxy-3,5,8,10,12,14-hexamethyl-15-oxo-1-oxa-6-azacyclopentadecan-11-yl)oxy)-3-hydroxy-6-methyltetrahydro-2H-pyran-4-yl)-1,3-dimethyl-3-phenylurea], the MIC in test [1] (setting [2]) was above 64 µg/mL. The “IL-1β OS of LPS” value in the test with IL-1β is 100 µM. The IC50 in the test on IL-6 (setting [3]) worked out at 99 µM; in the test on TNF-α (setting [3]) it was 31 µM.
